Data on 26 molecules can be found in ChEMBL document CHEMBL3217649, “Synthesis of new N-substituted aminoquercitols from naturally available (+)-proto-quercitol and their -glucosidase inhibitory activity” (Medchemcomm, 2012).

Calls of active or inactive are those of the source. The rule behind the calls is not given here.

In test [1] the test system is Saccharomyces cerevisiae. Briefly: Inhibition of baker's yeast type 1 alpha-glucosidase using p-nitrophenyl-alpha-D-glucopyranoside as substrate at 10 mg/ml incubated for 10 mins prior to substrate challenge for 20 mins by microplate reader analysis.
Test [2] deals with Sucrase-isomaltase, intestinal (Rattus norvegicus) (UniProt P23739). Briefly: Inhibition of sucrase in rat small intestine using sucrose as substrate at 1 mg/ml after 40 mins by microplate reader analysis.
Sequence of Sucrase-isomaltase, intestinal (Rattus norvegicus) (P23739 1-1013 limits assumed): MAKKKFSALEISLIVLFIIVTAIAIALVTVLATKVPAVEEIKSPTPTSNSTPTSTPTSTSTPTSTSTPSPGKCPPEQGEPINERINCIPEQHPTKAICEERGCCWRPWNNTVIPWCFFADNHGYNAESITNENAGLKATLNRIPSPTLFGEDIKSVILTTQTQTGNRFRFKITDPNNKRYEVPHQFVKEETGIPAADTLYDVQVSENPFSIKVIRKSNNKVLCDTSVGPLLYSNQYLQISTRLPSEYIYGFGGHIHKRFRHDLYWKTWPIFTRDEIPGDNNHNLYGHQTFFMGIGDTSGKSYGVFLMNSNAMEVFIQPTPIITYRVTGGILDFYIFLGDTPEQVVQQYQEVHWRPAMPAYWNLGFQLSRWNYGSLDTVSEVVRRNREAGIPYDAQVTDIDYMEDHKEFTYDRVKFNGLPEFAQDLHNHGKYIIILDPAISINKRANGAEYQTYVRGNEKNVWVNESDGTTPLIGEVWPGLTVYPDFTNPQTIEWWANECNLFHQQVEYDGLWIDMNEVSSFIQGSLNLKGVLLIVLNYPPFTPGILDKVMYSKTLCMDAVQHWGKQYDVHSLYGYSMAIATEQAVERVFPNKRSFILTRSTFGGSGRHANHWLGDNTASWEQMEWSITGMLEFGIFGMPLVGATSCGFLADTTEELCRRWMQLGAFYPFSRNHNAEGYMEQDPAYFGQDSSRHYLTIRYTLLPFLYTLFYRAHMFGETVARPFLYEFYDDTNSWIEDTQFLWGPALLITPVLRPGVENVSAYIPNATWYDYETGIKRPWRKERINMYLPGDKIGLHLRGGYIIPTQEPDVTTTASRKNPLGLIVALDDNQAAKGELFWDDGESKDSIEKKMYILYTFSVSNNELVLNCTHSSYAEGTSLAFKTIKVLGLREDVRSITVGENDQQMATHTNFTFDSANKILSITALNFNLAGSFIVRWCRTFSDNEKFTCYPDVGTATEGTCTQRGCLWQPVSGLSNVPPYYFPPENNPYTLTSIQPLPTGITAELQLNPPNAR
Sequence of Sucrase-isomaltase, intestinal (Rattus norvegicus) (P23739 1014-1841 limits assumed): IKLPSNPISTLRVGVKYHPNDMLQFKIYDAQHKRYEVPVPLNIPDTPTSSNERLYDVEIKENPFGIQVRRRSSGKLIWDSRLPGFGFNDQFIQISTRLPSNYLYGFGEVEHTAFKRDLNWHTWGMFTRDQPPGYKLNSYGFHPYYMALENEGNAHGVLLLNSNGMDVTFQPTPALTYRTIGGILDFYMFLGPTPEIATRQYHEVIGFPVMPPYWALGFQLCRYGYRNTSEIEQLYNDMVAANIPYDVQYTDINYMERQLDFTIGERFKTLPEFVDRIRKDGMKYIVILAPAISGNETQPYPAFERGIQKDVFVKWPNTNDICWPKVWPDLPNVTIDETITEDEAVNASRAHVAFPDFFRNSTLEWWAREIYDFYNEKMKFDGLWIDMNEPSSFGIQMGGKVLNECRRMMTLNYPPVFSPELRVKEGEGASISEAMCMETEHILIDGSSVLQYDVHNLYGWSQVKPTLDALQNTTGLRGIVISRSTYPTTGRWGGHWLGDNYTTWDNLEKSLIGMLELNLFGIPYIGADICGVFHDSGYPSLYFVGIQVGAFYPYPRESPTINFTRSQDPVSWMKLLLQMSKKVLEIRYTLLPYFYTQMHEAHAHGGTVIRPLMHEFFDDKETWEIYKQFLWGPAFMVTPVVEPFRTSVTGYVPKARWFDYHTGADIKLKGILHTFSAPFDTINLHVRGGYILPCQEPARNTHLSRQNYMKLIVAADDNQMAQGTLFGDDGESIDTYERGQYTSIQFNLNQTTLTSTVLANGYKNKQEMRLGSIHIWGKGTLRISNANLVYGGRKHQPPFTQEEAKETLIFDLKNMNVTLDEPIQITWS
The nature of test [3]: Inhibition of type 2 alpha-glucosidase in rat small intestine using maltose as substrate after 10 mins by microplate reader analysis.
The species entered for test [4] is Rattus norvegicus. Briefly: Competitive inhibition of maltase in rat small intestine using maltose as substrate by Lineweaver-Burk plot analysis.
Test [5] in a line: Inhibition of maltase in rat small intestine using maltose as substrate by Lineweaver-Burk plot based secondary replot analysis. Type of test: tissue-based.
A short description of test [6]: Inhibition of baker's yeast type 1 alpha-glucosidase using p-nitrophenyl-alpha-D-glucopyranoside as substrate incubated for 10 mins prior to substrate challenge for 20 mins by microplate reader analysis. The arrangement: species or system Saccharomyces cerevisiae.
Test [7] is filed under the species Rattus norvegicus. Briefly: Ratio of acarbose IC50 to compound IC50 for type 2 alpha-glucosidase in rat small intestine.
Test [8] has as its target Sucrase-isomaltase, intestinal (Rattus norvegicus, UniProt P23739). Briefly: Inhibition of sucrase in rat small intestine using sucrose as substrate after 40 mins by microplate reader analysis.
Test [9] deals with Saccharomyces cerevisiae. Description: Ratio of acarbose IC50 to compound IC50 for baker's yeast type 1 alpha-glucosidase.
The species named for test [10] is Rattus norvegicus. Description: Inhibition of type 2 alpha-glucosidase in rat small intestine using maltose as substrate at 1 mg/ml after 10 mins by microplate reader analysis.

Sequence of Sucrase-isomaltase, intestinal (P23739 1-1013 limits assumed): as the sequence (P23739 1-1013 limits assumed) above
Sequence of Sucrase-isomaltase, intestinal (P23739 1014-1841 limits assumed): as the sequence (P23739 1014-1841 limits assumed) above

For orientation: inhibition means the change of the read-out against control, counted positive when it falls. For orientation: IC50 means the midpoint of a concentration-inhibition curve. Regarding `CCCCCCCCCCCCN[C@H]1C[C@@H](O)[C@H](O)[C@@H](O)[C@H]1O`, the inhibition (in the test with Saccharomyces cerevisiae [1]; in test [2]) was less than 30% throughout. Also, 1.9 µM corresponded to half-maximal inhibition in [3] (IC50).
A word on the Ki: it is the dissociation constant of the complex between target and ligand, obtained from inhibition or displacement. Read a low Ki as a stronger hold on the target. For `CCCCCCCCCC(=O)N[C@H]1C[C@@H](O)[C@H](O)[C@@H](O)[C@H]1O`, the inhibition (with Saccharomyces cerevisiae [1]; in test [2]) was less than 30% throughout. The “competitive inhibition (Lineweaver-Burk)” value in the test listed under Rattus norvegicus [4] was “Active”. In test [5], this molecule came in with a Ki of 1.5 µM. Also, in [3], the IC50 is 2 µM.
`CCCCCCN[C@@H]1C[C@@H](O)[C@H](O)[C@@H](O)[C@H]1O`: the IC50 came out at 400 µM in test [6] and 0.24 µM in test [3]. In the test listed under Rattus norvegicus [7], the Ratio IC50 was 3. For the same molecule, in the test listed under Rattus norvegicus [4], the “competitive inhibition (Lineweaver-Burk)” value was “Active”. In [2], this molecule registered an inhibition of less than 30%. Also, the Ki in test [5] amounted to 0.73 µM.
Turning to `CCCCN(CCCC)[C@@H]1C[C@@H](O)[C@H](O)[C@@H](O)[C@H]1O`, the IC50 in [6] came out at 1800 µM; in test [3], 7.6 µM. The inhibition in test [2] was less than 30%.
As to `CCCCCCCCCC(=O)N[C@@H]1C[C@@H](O)[C@H](O)[C@@H](O)[C@H]1O`, the inhibition (in the test on Saccharomyces cerevisiae [1]; in [2]) was less than 30% each time. In test [3], it took 3.5 µM to reach half-maximal inhibition (IC50).
As to `CCCC(=O)N[C@@H]1C[C@@H](O)[C@H](O)[C@@H](O)[C@H]1O`, the values for the 50% inhibitory concentration (IC50) in [6], in test [8] and in test [3] were 1200 µM, 4.7 µM and 19 µM, respectively.
On to `CCCC(=O)N[C@H]1C[C@@H](O)[C@H](O)[C@@H](O)[C@H]1O`, for which the inhibition (with Saccharomyces cerevisiae [1]; in test [2]) was less than 30% throughout. This molecule came in with an IC50 in test [3] of 38 µM.
Take `CCCCCCN(CCCCCC)[C@H]1C[C@@H](O)[C@H](O)[C@@H](O)[C@H]1O`: the inhibition in the test on Saccharomyces cerevisiae [1] was less than 30%. The IC50 in test [8] is 120 µM; in test [3], 32 µM.
Turning to `CCCCCCCCCCCCN[C@@H]1C[C@@H](O)[C@H](O)[C@@H](O)[C@H]1O`, the inhibition (in the test with Saccharomyces cerevisiae [1]; in test [2]) was less than 30% in each case. For the same molecule, 1.5 µM corresponded to half-maximal inhibition in test [3] (IC50).
Turning to `CCCCN(CCCC)[C@H]1C[C@@H](O)[C@H](O)[C@@H](O)[C@H]1O`, the IC50 is 2300 µM in [6], 36 µM in test [8] and 24 µM in test [3].
With `CCCCCC(=O)N[C@H]1C[C@@H](O)[C@H](O)[C@@H](O)[C@H]1O`, the inhibition (in the test with Saccharomyces cerevisiae [1]; in test [2]) was less than 30% throughout. In test [3], the IC50 was 4.2 µM.
With `CCCCCCCCCCN[C@@H]1C[C@@H](O)[C@H](O)[C@@H](O)[C@H]1O`, the inhibition (with Saccharomyces cerevisiae [1]; in [2]) was less than 30% each time. In the test filed under Rattus norvegicus [7], the Ratio IC50 turned out to be 3. Besides, it took 0.41 µM to reach half-maximal inhibition in test [3] (IC50).
As for `CCCCCCCCCCCC(=O)N[C@@H]1C[C@@H](O)[C@H](O)[C@@H](O)[C@H]1O`, the inhibition (with Saccharomyces cerevisiae [1]; in test [2]) was less than 30% throughout. In addition, the IC50 in test [3] came out at 7.4 µM.
Consider `C[C@H]1O[C@H](O[C@H]2[C@H](O)[C@@H](O)[C@@H](O[C@H]3[C@H](O)[C@@H](O)C(O)O[C@@H]3CO)O[C@@H]2CO)[C@H](O)[C@@H](O)[C@@H]1N[C@H]1C=C(CO)[C@@H](O)[C@H](O)[C@H]1O` (stereo partly drawn) [ACARBOSE], for which the IC50 stood at 480 µM in test [6] and 1.5 µM in test [3]. In the test listed under Rattus norvegicus [4], the “competitive inhibition (Lineweaver-Burk)” value is “Active”. Also, in test [5], the inhibitory constant (Ki) is 0.99 µM.
For the molecule `CCCCCC(=O)N[C@@H]1C[C@@H](O)[C@H](O)[C@@H](O)[C@H]1O`, the IC50 in test [6] amounted to 1700 µM; in test [8], 6.1 µM; in test [3] it was 3.8 µM.
For the molecule `CCCCN[C@H]1C[C@@H](O)[C@H](O)[C@@H](O)[C@H]1O`, the inhibition (in the test with Saccharomyces cerevisiae [1]; in test [2]) was less than 30% in each case. This molecule showed an IC50 in test [3] of 290 µM.
Turning to `CC(=O)N[C@@H]1C[C@@H](O)[C@H](O)[C@@H](O)[C@H]1O`, the IC50 was found to be 150 µM in [6], 5.3 µM in test [8] and 5.3 µM in test [3]. The Ratio IC50 in the test with Saccharomyces cerevisiae [9] stood at 3.
As to `CCCCCCN[C@H]1C[C@@H](O)[C@H](O)[C@@H](O)[C@H]1O`, the inhibition (with Saccharomyces cerevisiae [1]; in [2]) was less than 30% each time. The molecule also showed an IC50 in test [3] of 2.5 µM.
On to `CC(=O)N[C@H]1C[C@@H](O)[C@H](O)[C@@H](O)[C@H]1O`, for which the 50% inhibitory concentration (IC50) in test [6] was determined as 270 µM; in test [3], 180 µM. The molecule also gave an inhibition in test [2] of less than 30%.
Regarding `CCN(CC)[C@@H]1C[C@@H](O)[C@H](O)[C@@H](O)[C@H]1O`, the IC50 was 1600 µM in [6] and 5 µM in [3]. The “competitive inhibition (Lineweaver-Burk)” value in the test filed under Rattus norvegicus [4] is “Active”. The molecule further returned an inhibition in test [2] of less than 30%. The Ki in test [5] worked out at 3.5 µM.
`CCCCN[C@@H]1C[C@@H](O)[C@H](O)[C@@H](O)[C@H]1O`: the values for the IC50 in test [6] and in test [3] were 1200 µM and 57 µM, respectively. The molecule also yielded an inhibition in test [2] of less than 30%.
As to `CCCCCCCCCCN[C@H]1C[C@@H](O)[C@H](O)[C@@H](O)[C@H]1O`, the inhibition with Saccharomyces cerevisiae [1] is less than 30%. In addition, the IC50 came out at 410 µM in [8] and 2 µM in test [3].
`CCCCCCN(CCCCCC)[C@@H]1C[C@@H](O)[C@H](O)[C@@H](O)[C@H]1O`: the inhibition (in the test with Saccharomyces cerevisiae [1]; in test [2]) was less than 30% throughout. The IC50 in test [3] is 48 µM.
With `CCN(CC)[C@H]1C[C@@H](O)[C@H](O)[C@@H](O)[C@H]1O`, the values for the IC50 in [6], in [8] and in test [3] were 1600 µM, 360 µM and 21 µM, respectively.
Regarding `CCN[C@H]1C[C@@H](O)[C@H](O)[C@@H](O)[C@H]1O`, the inhibition in the test filed under Rattus norvegicus [10] was 30%; in the test on Saccharomyces cerevisiae [1], less than 30%; in [2], less than 30%.
For `CCCCCCCCCCCC(=O)N[C@H]1C[C@@H](O)[C@H](O)[C@@H](O)[C@H]1O`, the inhibition (in the test on Saccharomyces cerevisiae [1]; in test [2]) was less than 30% each time. This molecule came in with a 50% inhibitory concentration (IC50) in [3] of 10 µM.
